Measured values published in publication PMC7660225, “New Chemical Probe Targeting Bacterial NAD Kinase” (Molecules, 2020).

Columns and labels:
recombinant LmNADK1 = molecular target: T1, recombinant LmNADK1 (Listeria monocytogenes serovar 1/2a, UniProt Q8Y8D7); experiment: LmNADK1 inhibition, coupling assay (Ki measurements); assay type: biochemical; settings: for Ki: competitive inhibition fit, 30 °C, pH 7.0, inhibitor 0, 10, 25 or 50 µM, 0-2 mM NAD, 0.1 µM LmNADK1; for inhibitory potency compared to inhibitor 1 (NKI1): result in words
T1 construct: made in house
T1 sequence (Q8Y8D7 1-264): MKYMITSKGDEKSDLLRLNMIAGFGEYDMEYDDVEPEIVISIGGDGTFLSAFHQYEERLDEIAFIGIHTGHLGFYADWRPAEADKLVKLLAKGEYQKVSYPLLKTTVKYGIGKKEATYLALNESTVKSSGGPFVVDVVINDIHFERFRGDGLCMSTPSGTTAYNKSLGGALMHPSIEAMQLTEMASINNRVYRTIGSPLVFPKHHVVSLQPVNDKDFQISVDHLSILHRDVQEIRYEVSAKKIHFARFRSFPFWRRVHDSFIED
Procedure: Another important parameter to select the chemical probe is that it retains its binding properties. The potency of ligands 2–5 as inhibitors of recombinant LmNADK1 in vitro were determined using the coupling assay described previously.
Activity was measured at 30 °C in 50 mM Bis-Tris pH 7.0, 2 mM sodium citrate, 1 mM MgCl2. Reaction mixtures contained 0–2 mM NAD, 4 mM MgATP, 5 mM Glucose 6-phosphate, 1 U/mL Glucose 6-phosphate dehydrogenase and 0.1 µM LmNADK1. Steady state rate constants (kss) were calculated by fitting the initial (first 500–1000 s) linear part of the NADP production time courses per NADK. Inhibitors were tested at 4 concentrations: 0, 10, 25 or 50 µM and Ki values were determined using the competitive inhibition equation, kss = kcat × NAD/(KM × (1 + [inhibitor]/Ki) + NAD), with GraFit software (v 7.0.3).
Figure 5 Determination of inhibition constants of compounds 1–5. Inhibitor concentrations were 0 (circles), 10 (triangles), 25 (squares) and 50 (stars) µM. Secondary plots (kss as a function of initial NAD concentration) were fitted assuming a competitive inhibition using GraFit software (v 7.0.3) and are presented here as double reciprocal plots. […] TEXT PRINTED IN THE PICTURE: NKI1: Ki (μM): 17.2 | 2: Ki (μM): 347 | 3: Ki (μM): 52.2 | 4: Ki (μM): 23.8 | 5: Ki (μM): 5.6

S. aureus = tested on: S. aureus; design: method as in PMID 32017533; settings: including antibiotic-resistant strains; cited from earlier work
crystallized LmNADK1 = molecular target: T2, crystallized LmNADK1 (Listeria monocytogenes serovar 1/2a, UniProt Q8Y8D7); experiment: X-ray crystallography of soaked LmNADK1 crystals; assay type: binding; settings: soaking procedure; structures refined to 2.2-2.4 Å
T2 construct: made in house
T2 sequence (Q8Y8D7 1-264): T1 sequence (Q8Y8D7 1-264)
Procedure: A prerequisite to use a chemical probe is that it retains its binding affinity for its target. The binding properties of the four synthesized derivatives 2–5 were analyzed by X-ray crystallography. We checked the binding properties of these new di-adenosine derivatives by determining their complex with crystallized LmNADK1. The soaking procedure described previously for inhibitor 1 [18] was used to obtain crystals of the target in complex with compounds 2-5. The X-ray structures were solved by molecular replacement using PDB6RGC [18] as a starting template and refined to 2.2–2.4 Å resolution.

Ki (recombinant LmNADK1) [µM]	inhibitory potency compared to inhibitor 1 (NKI1) (recombinant LmNADK1)	complex formation / binding mode with crystallized LmNADK1 (crystallized LmNADK1)	Compound	activity in mice infected with S. aureus (S. aureus)
17.2	–	–	Nc1ncnc2c1ncn2C1OC(COCC#Cc2nc3c(N)ncnc3n2C2OC(CO)C(O)C2O)C(O)C1O (centres unmarked) [NKI1]	active in mice infected with S. aureus
5.6	slightly increased	very similar to that of NKI1	NCCCN(CC#Cc1nc2c(N)ncnc2n1C1OC(CO)C(O)C1O)CC1OC(n2cnc3c(N)ncnc32)C(O)C1O (centres unmarked) [Compound 5, 5’-[N-3-Aminopropyl-N-(3-(adenosin-8-yl)propargyl)amino]-5’-deoxyadenosine]	–
347	sharp decrease in inhibitory potency	led to a complex with the target	NCCNc1ncnc2c1ncn2C1OC(COCC#Cc2nc3c(N)ncnc3n2C2OC(CO)C(O)C2O)C(O)C1O (centres unmarked) [Compound 2, 8-[3-(N^6-2-Aminoethyl-5’-O-adenosinyl)propargyl]adenosine]	–
52.2	sharp decrease in inhibitory potency	failed to yield complex	NCCCCNc1ncnc2c1ncn2C1OC(COCC#Cc2nc3c(N)ncnc3n2C2OC(CO)C(O)C2O)C(O)C1O (centres unmarked) [Compound 3, 8-[3-(N^6-4-Aminobutyl-5’-O-adenosinyl)propargyl]adenosine]	–
23.8	slightly reduced inhibitory potency	very similar to that of NKI1	NCCCC(=O)NCC1OC(n2c(C#CCOCC3OC(n4cnc5c(N)ncnc54)C(O)C3O)nc3c(N)ncnc32)C(O)C1O (centres unmarked) [Compound 4, 5’-O-[3-(5’-(4-Aminobutylamido)-5’-deoxy-adenosin-8-yl)prop-2-yn-1-yl]-adenosine]	–
